Literature values, collected in patent US8067401B2, “Compounds and compositions for treating infection” (priority 2007, dated 2011).

Test system: HIV-1

## Prunellin
  minimum inhibition concentration against HIV-1 in vitro: 2.2 µg/mL
